Assay results as given in ChEMBL document CHEMBL4177573 (Bioorg Med Chem, 2017).
Square brackets hold non-standard residues; d marks the D form. Peptide text beside a SMILES is read from it. Cha = N[C@@H](CC1CCCCC1)C(=O)O; Aib = CC(C)(N)C(=O)O

Legend:
Mus musculus [1] = assay: Anorectic activity in C57BL/6J mouse assessed as inhibition of food intake at 1 mg/kg/day, sc for 3 days dosed as continuous administration by infusion using osmotic pump; assay type: functional; conditions: 72 h
[2] = target: T1, Neuropeptide Y receptor type 2 (Homo sapiens, UniProt P49146); assay: Displacement of [125I]-PYY from human neuropeptide Y2 receptor expressed in CHO cell membranes incubated for 60 mins by TopCount based method
T1 sequence (P49146 whole entry): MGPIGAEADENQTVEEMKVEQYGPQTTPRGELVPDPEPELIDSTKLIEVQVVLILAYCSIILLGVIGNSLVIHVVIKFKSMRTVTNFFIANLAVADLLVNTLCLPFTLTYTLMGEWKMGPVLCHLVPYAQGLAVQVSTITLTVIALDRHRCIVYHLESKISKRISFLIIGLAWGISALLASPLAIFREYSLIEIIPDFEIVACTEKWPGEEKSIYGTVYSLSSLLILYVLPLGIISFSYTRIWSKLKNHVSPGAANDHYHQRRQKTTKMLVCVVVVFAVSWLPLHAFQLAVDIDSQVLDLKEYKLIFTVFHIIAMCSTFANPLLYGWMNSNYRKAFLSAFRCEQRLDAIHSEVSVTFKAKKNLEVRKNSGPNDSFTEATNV

[3] = target: T1, Neuropeptide Y receptor type 2; assay: Agonist activity at human neuropeptide Y2 receptor expressed in CHO cell membranes assessed as stimulation of [35S]GTPgammaS binding incubated for 120 mins by liquid scintillation counting method; assay type: functional
Mus musculus [4] = assay: Anorectic activity in C57BL/6J mouse assessed as inhibition of food intake at 0.3 mg/kg/day, sc for 3 days dosed as continuous administration by infusion using osmotic pump; assay type: functional; conditions: 72 h
Mus musculus [5] = assay: Anorectic activity in C57BL/6J mouse assessed as inhibition of food intake at 0.3 mg/kg/day, sc dosed as […] and measured after 24 hrs; assay type: functional
Mus musculus [6] = assay: Drug level in C57BL/6J mouse at 1 mg/kg, iv measured during 5 mins to 24 hrs by LC/MS/MS method; assay type: ADME, organism-based; conditions: in vivo, read-out: Drug uptake
Mus musculus [7] = assay: Anorectic activity in C57BL/6J mouse assessed as inhibition of food intake at 0.1 mg/kg/day, sc for 3 days dosed as continuous administration by infusion using osmotic pump; assay type: functional; conditions: 72 h
Mus musculus [8] = assay: Anorectic activity in C57BL/6J mouse assessed as inhibition of food intake at 0.03 mg/kg/day, sc for 3 days dosed as continuous administration by infusion using osmotic pump; assay type: functional; conditions: 72 h
Mus musculus [9] = assay: Anorectic activity in C57BL/6J mouse assessed as inhibition of food intake at 0.3 mg/kg/day, sc dosed as […] and measured after 12 hrs; assay type: functional
[10] = MRT in C57BL/6J mouse at 1 mg/kg, iv measured during 5 mins to 24 hrs by LC/MS/MS method; assay type: ADME, organism-based; conditions: in vivo
[11] = Bioavailability in C57BL/6J mouse at 1 mg/kg, sc measured during 5 mins to 24 hrs by LC/MS/MS method; assay type: ADME, organism-based; conditions: in vivo
[12] = AUC (0 to 24 hrs) in C57BL/6J mouse at 1 mg/kg, sc measured during 5 mins to 24 hrs by LC/MS/MS method; assay type: ADME, organism-based; design: time < 24 hr, dose 1 mg/kg, route subcutaneous; conditions: in vivo
[13] = AUC (0 to 24 hrs) in C57BL/6J mouse at 1 mg/kg, iv measured during 5 mins to 24 hrs by LC/MS/MS method; assay type: ADME, organism-based; design: dose 1 mg/kg, time < 24 hr, route intravenous; conditions: in vivo
[14] = Volume of distribution at steady state in C57BL/6J mouse at 1 mg/kg, iv measured during 5 mins to 24 hrs by LC/MS/MS method; assay type: ADME, organism-based; conditions: in vivo, read-out: Vdss
[15] = Total clearance in C57BL/6J mouse at 1 mg/kg, iv measured during 5 mins to 24 hrs by LC/MS/MS method; assay type: ADME, organism-based; conditions: in vivo
[16] = Tmax in C57BL/6J mouse at 1 mg/kg, sc measured during 5 mins to 24 hrs by LC/MS/MS method; assay type: ADME, organism-based; conditions: in vivo
[17] = MRT in C57BL/6J mouse at 1 mg/kg, sc measured during 5 mins to 24 hrs by LC/MS/MS method; assay type: ADME, organism-based; conditions: in vivo
[18] = Cmax in C57BL/6J mouse at 1 mg/kg, sc measured during 5 mins to 24 hrs by LC/MS/MS method; assay type: ADME, organism-based; design: dose 1 mg/kg, route subcutaneous; conditions: in vivo

SMILES | IC50 [2] | EC50 [3] | concentration (Mus musculus [6]) | inhibition in vivo at 1 mg/kg/day (Mus musculus [1]) | inhibition in vivo at 0.3 mg/kg/day (Mus musculus [4]) | inhibition in vivo at 0.3 mg/kg/day (Mus musculus [5]) | inhibition in vivo at 0.1 mg/kg/day (Mus musculus [7]) | inhibition in vivo at 0.03 mg/kg/day (Mus musculus [8]) | inhibition in vivo at 0.3 mg/kg/day (Mus musculus [9]) | also measured
CC(=O)N[C@@H](CO)C(=O)N1CCC[C@@H]1C(=O)N[C@@H](CCCNC(=N)N)C(=O)N[C@@H](Cc1cnc[nH]1)C(=O)N[C@@H](CC1CCCCC1)C(=O)N[C@@H](CC1CCCCC1)C(=O)N[C@@H](CC(N)=O)C(=O)N[C@@H](CC(C)C)C(=O)NC(C)(C)C(=O)N[C@H](C(=O)N[C@@H](CCCNC(=N)N)C(=O)N[C@@H](CCC(N)=O)C(=O)N[C@@H](CCCNC(=N)N)C(=O)N[C@@H](CC1CCCCC1)C(N)=O)[C@@H](C)O (Ac-S[dP]RH[Cha][Cha]NL[Aib]TRQR[Cha]-NH2) |  |  |  | 33% |  |  |  |  |  | 
CC(C)C[C@H](NC(=O)[C@H](CC(N)=O)NC(=O)[C@H](CC1CCCCC1)NC(=O)[C@H](CC1CCCCC1)NC(=O)[C@H](Cc1cnc[nH]1)NC(=O)[C@H](CCCNC(=N)N)NC(=O)[C@H]1CCCN1C(=O)[C@H](CO)NC(=O)CCC(=O)O)C(=O)NC(C)(C)C(=O)N[C@H](C(=O)N[C@@H](CCCNC(=N)N)C(=O)N[C@@H](CCC(N)=O)C(=O)N[C@@H](CCCNC(=N)N)C(=O)N[C@@H](CC1CCCCC1)C(N)=O)[C@@H](C)O | 2.3 nM | 0.4 nM |  | 103% |  |  |  |  |  | 
CC[C@](C)(NC(=O)[C@H]1CCCN1C(=O)[C@H](CO)NC(C)=O)C(=O)N[C@@H](Cc1cnc[nH]1)C(=O)N[C@@H](CC1CCCCC1)C(=O)N[C@@H](CC1CCCCC1)C(=O)N[C@@H](CC(N)=O)C(=O)N[C@@H](CC(C)C)C(=O)NC(C)(C)C(=O)N[C@H](C(=O)N[C@@H](CCCNC(=N)N)C(=O)N[C@@H](CCC(N)=O)C(=O)N[C@@H](CCCNC(=N)N)C(=O)N[C@@H](CC1CCCCC1)C(N)=O)[C@@H](C)O | 16 nM | 2 nM |  |  | 2% |  |  |  |  | 

Continued, in another order:

IC50 [2] | EC50 [3] | concentration (Mus musculus [6]) | SMILES | inhibition in vivo at 1 mg/kg/day (Mus musculus [1]) | inhibition in vivo at 0.3 mg/kg/day (Mus musculus [4]) | inhibition in vivo at 0.3 mg/kg/day (Mus musculus [5]) | inhibition in vivo at 0.1 mg/kg/day (Mus musculus [7]) | inhibition in vivo at 0.03 mg/kg/day (Mus musculus [8]) | inhibition in vivo at 0.3 mg/kg/day (Mus musculus [9]) | also measured
 |  | 1060 nM | CC(=O)N[C@@H](CO)C(=O)N1CCC[C@@H]1C(=O)N[C@@H](CCCNC(=N)N)C(=O)N[C@@H](Cc1ccncc1)C(=O)N[C@@H](CC1CCCCC1)C(=O)NC(C)(C)C(=O)N[C@@H](CC(N)=O)C(=O)N[C@@H](CCCCN)C(=O)NC(C)(C)C(=O)N[C@H](C(=O)N[C@@H](CCCNC(=N)N)C(=O)N[C@@H](CCC(N)=O)C(=O)N[C@@H](CCCNC(=N)N)C(=O)N[C@@H](CC1CCCCC1)C(N)=O)[C@@H](C)O |  | 112% | 15% | 80% | 38% | 35% | 
0.16 nM | 0.14 nM |  | CC[C@](C)(NC(=O)[C@H](CC1CCCCC1)NC(=O)[C@H](Cc1ccncc1)NC(=O)[C@H](CCCNC(=N)N)NC(=O)[C@H]1CCCN1C(=O)[C@H](CO)NC(C)=O)C(=O)N[C@@H](CC(N)=O)C(=O)N[C@@H](CCCCN)C(=O)NC(C)(C)C(=O)N[C@H](C(=O)N[C@@H](CCCNC(=N)N)C(=O)N[C@@H](CCC(N)=O)C(=O)N[C@@H](CCCNC(=N)N)C(=O)N[C@@H](CC1CCCCC1)C(N)=O)[C@@H](C)O |  |  | 23% | 85% | 36% | 41% | 
1.8 nM | 0.28 nM | 1270 nM | CC[C@](C)(NC(=O)[C@H]1CCCN1C(=O)[C@H](CO)NC(C)=O)C(=O)N[C@@H](Cc1ccncc1)C(=O)N[C@@H](CC1CCCCC1)C(=O)NC(C)(C)C(=O)N[C@@H](CC(N)=O)C(=O)N[C@@H](CCCCN)C(=O)NC(C)(C)C(=O)N[C@H](C(=O)N[C@@H](CCCNC(=N)N)C(=O)N[C@@H](CCC(N)=O)C(=O)N[C@@H](CCCNC(=N)N)C(=O)N[C@@H](CC1CCCCC1)C(N)=O)[C@@H](C)O |  |  | 7% | 68% | 46% | 22% | MRT [10]: 12 min; bioavailability [11]: 53.7%; AUC(0-t) at 24 h [12]: 0.125 µM·h; AUC(0-t) at 24 h [13]: 0.232 µM·h; Vd [14]: 0.5 L/kg; clearance [15]: 41 mL/min/kg; Tmax [16]: 15 min; MRT [17]: 22.2 min; Cmax [18]: 227 nM
